Results from patent publication US12649730B2 (MITOIMMUNE THERAPEUTICS INC., priority 2021, dated 2026).
Read-outs that look alike come from different tables or passages of the source.

Legend:
[1] = tested on: MPTP-induced Parkinson's disease mouse model; test: Grip strength test in MPTP-induced Parkinson's disease mouse model; assay type: in vivo, C57BL/6 mice; settings: intraperitoneally once a day, low, medium and high doses, 6 days from 2 days after MPTP
C8-D1A cells = test: Peroxynitrite removal in astrocytes under SIN-1 (DAX-J2 PON Green); assay type: cell-based; settings: 10 μM and 30 μM, 200 μM SIN-1
Protocol: (§1) To confirm the effect of removing peroxynitrite produced from macrophages, RAW264.7 cells were seeded in a 96 well plate at 1×10^5 cells/well and cultured for 24 hours. Peroxynitrite was measured by fluorescence measurement using DAX-J2™ PON Green dye. […] Thereafter, SIN-1 was treated to a final concentration of 200 μM, and the amount of peroxynitrite generated in the cell every 2 minutes in real time was measured through fluorescence intensity. To confirm the effect of removing peroxynitrite from astrocytes, C8-D1A cells were seeded in a 96 well plate at 6×10^4 cells/well and cultured for 24 hours, and the experiment was performed under the same conditions. […] The horizontal axis represents the concentrations of the compound of Formula 1 and ascorbic acid, and V.C is the control treated with only the vehicle, and the concentration of intracellular peroxynitrite increases the most during SIN-1 treatment. The vertical axis represents the total amount of peroxynitrite generated 1 hour after SIN-1 treatment.

[2] = Solubility screening of the compound of Chemical Formula 1 in various solvents (supernatant, HPLC); assay type: physicochemical
[3] = tested on: MPTP-induced Parkinson's disease mouse model; test: TH (Tyrosine hydroxylase) staining of brain tissue in MPTP-induced Parkinson's disease mouse model; assay type: in vivo, C57BL/6 mice; settings: medium and high doses
Protocol: Behavioral disorders were induced by administering 20 mg/kg MPTP to C57BL/6 mice a total of 4 times at 2 hour intervals. […] On the 6th day after administration of the compound of Formula 1, mice were sacrificed, frozen sections of brain tissue were prepared, and TH (Tyrosine hydroxylase) staining was performed.

RAW264.7 cells = test: Peroxynitrite removal in macrophages under SIN-1 (DAX-J2 PON Green); assay type: cell-based; settings: RAW264.7 macrophages, 10 μM and 30 μM, 200 μM SIN-1
Protocol: as §1

H9C2 cells [4] = test: Cytoplasmic calcium concentration under tBHP treatment (FLIPR Calcium 6 assay kit); assay type: cell-based; settings: 150 μM tBHP
Protocol: To examine the calcium concentration maintenance effect in cardiomyocytes, H9C2 cells were placed in a 96 well plate at 1.5×10^4 cells/well and cultured for 24 hours. To measure cytoplasmic calcium concentration, a FLIPR Calcium 6 assay kit (Molecular devices; #R8190) was used. Following the manufacturer's experimental method, the cells were treated with probenecid and calcium-specific dye. […] For stimulation of cells, the cells were treated with tBHP to a final concentration of 150 μM, then cytoplasmic calcium concentration was measured every 30 seconds in real time. […] The ΔF/F (Max-Min) value of the vertical axis is the difference between the maximum and minimum values for the fluorescence value of calcium-specific dye after tBHP treatment. The ΔF/F value increases with cytoplasmic calcium concentration. The horizontal axis indicates the concentration of Chemical Formula 1, and V.C. is a control only treated with the vehicle, where cytoplasmic calcium concentration increases most when treated with tBHP.

H9C2 cells [5] = test: Intra-mitochondrial reactive oxygen species, DHR-123 fluorometry under tBHP; assay type: cell-based; settings: 0.0001 to 30 μM compound, 400 μM tBHP
Protocol: To examine the intra-mitochondrial reactive oxygen species removal effect in cardiomyocytes, H9C2 cells were placed in a 96 well plate at 1.5×10^4 cells/well and cultured for 24 hours. To measure mitochondria-specific reactive oxygen species, fluorometry using dihydrorhodamine-123 (DHR-123) was used.

H9C2 cells [6] = test: Mitochondrial calcium imaging with Rhod-2 under tBHP, thapsigargin and CaCl2; assay type: cell-based; settings: 10 μM compound, 150 μM tBHP, 1.2 μM thapsigargin, 2 mM CaCl2
Protocol: In addition, in order to confirm the effect of inhibiting the increase in mitochondrial calcium concentration in cardiomyocytes by cell imaging, H9C2 cells were seeded in a 35 mm culture dish at 1.5×10^4 cells and cultured for 24 hours. Imaging of calcium concentration in mitochondria was performed using Rhod-2. The cells were treated with Rhod-2, MitoTracker Green (200 nM), and Hoechst33342 (2 drops/ml) for 50 minutes, washed twice with KRB buffer, and incubated for another 30 minutes with buffer solution. The cells were treated with the compound of Formula 1 for 0.25 hours to final concentration of 10 μM, and treated with tBHP for 30 minutes to final concentration of 150 μM. Then, the cells were treated with 1.2 μM thapsigargin for 10 minutes and 2 mM of CaCl2, and the fluorescence developed in mitochondrial calcium of the living cells was observed through imaging.

[7] = Solubility equilibrium in DMSO/EtOH mixed solvent by temperature; assay type: physicochemical; settings: organic solvent or mixture, thermodynamic from solid
Protocol: These were respectively heated and held at 50° C., 60° C., and 75° C. while being agitated for 6 hours. […] Accordingly, it was decided that a super-saturation method would be considered.

[8] = tested on: MPTP-induced Parkinson's disease mouse model; test: Pole test in MPTP-induced Parkinson's disease mouse model; assay type: in vivo, C57BL/6 mice; settings: intraperitoneally once a day, low, medium and high doses, 6 days from 2 days after MPTP
H9C2 cells [9] = test: Intra-mitochondrial superoxide imaging with MitoSOX under tBHP; assay type: cell-based; settings: 1 μM compound, 50 μM tBHP 1 hour
Protocol: To measure the superoxides among the reactive oxygen species occurring in mitochondria, intracellular fluorescent imaging was used by using MitoSOX™ (Red Mitochondrial Superoxide Indicator). […] The cell culture medium was replaced with a medium without phenol red, then the cells were treated for 30 minutes with HOECHST (0.5 drop/ml), MitoTracker Green (150 nM) and MitoSOX (2 μM) before observing intracellular fluorescence through imaging.

[10] = intraperitoneally once a day, low, 6 days

O=S1(=O)CCN(Cc2cc(NC3CCOCC3)c3[nH]c(-c4ccccc4)cc3c2)CC1 [compound of Chemical Formula 1, 5-[(1,1-dioxido-4-thiomorpholinyl)methyl]-2-phenyl-N-(tetrahydro-2H-pyran-4-yl)-1H-indol-7-amine]
Grip force value [1]: restored in a concentration-dependent manner
Peroxynitrite inhibition compared with positive control ascorbic acid (C8-D1A cells): superior inhibitory effect than ascorbic acid
Total peroxynitrite generated 1 hour after SIN-1 treatment (C8-D1A cells): peroxynitrite generation was inhibited by treatment with the compound of Formula 1 in a concentration-dependent manner
Solubility ([2]; Heptane, 25° C.): <LOQ
Solubility ([2]; Heptane, 50° C.): <LOQ
Solubility ([2]; MTBE, 25° C.): 0.06 mg/mL
Solubility ([2]; MTBE, 50° C.): 0.07 mg/mL
Solubility ([2]; THF, 25° C.): 17.40 mg/mL
Solubility ([2]; in most solvents (Table 3)): very low
Solubility ([2]; organic solvent or mixture, thermodynamic from solid, in DMF, NMP and DMSO (Table 3), read-out: Solubility): ≥ 40 mg/mL
TH level in the striatum [3, 10]: recovered in a concentration-dependent manner
TH level in the substantia nigra [3, 10]: recovered in a concentration-dependent manner
TH level in the striatum [3]: significantly increased
Peroxynitrite inhibition compared with positive control ascorbic acid (RAW264.7 cells): superior inhibitory effect than ascorbic acid
Total peroxynitrite generated 1 hour after SIN-1 treatment (RAW264.7 cells): peroxynitrite generation was inhibited by treatment with the compound of Formula 1 in a concentration-dependent manner
Cytoplasmic calcium concentration (ΔF/F Max-Min) after tBHP (H9C2 cells [4]; 0.01 μM compound): reduced
Cytoplasmic calcium concentration (ΔF/F Max-Min) after tBHP (H9C2 cells [4]; 0.1 μM compound): normal level of cytoplasmic calcium concentration
Total intra-mitochondrial reactive oxygen species over 2 hours after tBHP (DHR-123) (H9C2 cells [5]): inhibit occurrence of reactive oxygen species in a concentration-dependent manner
Mitochondrial calcium concentration (Rhod-2 fluorescence) (H9C2 cells [6]): effectively inhibited the increase in the calcium concentration in mitochondria
solubility at 6 h ([7]; DMSO/EtOH 1:4 mixed solvent, DMSO/EtOH 1:4, 50° C.): 15 mg/mL
solubility at 6 h ([7]; DMSO/EtOH 1:4 mixed solvent, DMSO/EtOH 1:4, 60° C.): 19 mg/mL
solubility at 6 h ([7]; DMSO/EtOH 1:4 mixed solvent, DMSO/EtOH 1:4, 75° C.): 31 mg/mL
solubility at 6 h ([7]; DMSO/EtOH 1:5 mixed solvent, DMSO/EtOH 1:5, 50° C.): 12 mg/mL
solubility at 6 h ([7]; DMSO/EtOH 1:5 mixed solvent, DMSO/EtOH 1:5, 60° C.): 14 mg/mL
solubility at 6 h ([7]; DMSO/EtOH 1:5 mixed solvent, DMSO/EtOH 1:5, 75° C.): 19 mg/mL
Pole test T-turn time [8]: recovered in a concentration-dependent manner
Pole test total time [8]: recovered in a concentration-dependent manner
Intra-mitochondrial superoxide (MitoSOX fluorescence) (H9C2 cells [9]): effectively removes intra-mitochondrial reactive oxygen species including superoxides
